Assay results published in US20260078119A1, “DEGRADER COMPOUNDS AND USES THEREOF” (Bristol-Myers Squibb Company, priority 2024, published 2026).

Molecular target: T1, FAK (Homo sapiens, UniProt Q05397)
T1 construct: homozygous knock-in of a HiBiT tag (Promega Corporation, Madison, WI) to the C-terminus of the FAK gene in its natural genomic locus; endogenous in cells; host or cells: JHH-4-FAK-HiBiT clone d01 (CRISPR-Cas9 knock-in at the endogenous locus)
Experiment: FAK-HiBiT Degradation Assay
Type: cell-based
Conditions: for DC50: JHH-4-FAK-HiBiT clone d01 cells, two hours incubation, 10-point dose response, 3-fold dilution starting at 1 μM, Nano-Glo HiBiT luminescence, read-out: FAK HiBiT EC50; for FAK HiBiT Ymin: lower limit of the four parameter fit (value A), Ymax derived using DMSO control, JHH-4-FAK-HiBiT cells, two hours
Excerpt: To generate JHH-4-FAK-HiBiT cells for the FAK degradation assay, JHH-4 cells (Japanese Collection of Research Biosources Cell Bank, Japan) were transfected with ribonucleoprotein reagents to introduce, by CRISPR-Cas9 editing, the homozygous knock-in of a HiBiT tag (Promega Corporation, Madison, WI) to the C-terminus of the FAK gene in its natural genomic locus. Clonal cell populations were established by expanding single cells after CRISPR-Cas9 editing, with a clonal cell line named JHH-4-FAK-HiBiT clone d01 confirmed by next generation DNA sequencing to contain the expected HiBiT edited FAK gene and was selected for FAK degradation screening. Cells were selected and maintained in complete DMEM media (DMEM, 10% Heat Inactivated FBS, and Non-Essential Amino Acids at 37° C. and 5% CO2). Cells were passaged every 3-4 days by reseeding 0.5×10^6 cells in a T75 flask.
Cells were dispensed into 384-well white plates (Corning #3570, NY) that were pre-spotted with compounds using an acoustic dispenser (Echo acoustic transfer system, Beckman Coulter Life Sciences, Carlsbad, CA) as a 10-point dose response curve with a 3-fold dilution starting at 1 μM and including a DMSO control. Twenty-five microliters of media containing 2000 JHH-4-FAK-HiBiT Clone d01 cells was dispensed per well. Assay plates were incubated at 37° C. with 5% CO2 for two hours. After incubation, 25 μL of Nano-Glo HiBiT Lytic Reagent Working Solution (Promega Corporation, Madison, WI) was added to each well and incubated at room temperature for 10 minutes protected from light. After 10 minutes, luminescence was read on a PHERAstar luminometer (BMG Labtech, Cary, NC).
To determine the half-maximal effective concentration (EC50) values for FAK-HiBIT degradation, a four parameter logistic model was used: (Sigmoidal Dose-Response Model)(FIT=(A+((B−A)/1+((C/x)^D)))) where C is the inflection point (EC50), D is the Hill slope, and A and B are the low and high limits of the fit respectively). The lower limit of the fit (value A) is referred to as Ymin. The maximum limit constraint, Ymax, was derived using DMSO control. The curves were processed and evaluated using Dotmatics Atlas (Insightful Science, LLC, Boston, MA).

T1 sequence (Q05397 whole entry): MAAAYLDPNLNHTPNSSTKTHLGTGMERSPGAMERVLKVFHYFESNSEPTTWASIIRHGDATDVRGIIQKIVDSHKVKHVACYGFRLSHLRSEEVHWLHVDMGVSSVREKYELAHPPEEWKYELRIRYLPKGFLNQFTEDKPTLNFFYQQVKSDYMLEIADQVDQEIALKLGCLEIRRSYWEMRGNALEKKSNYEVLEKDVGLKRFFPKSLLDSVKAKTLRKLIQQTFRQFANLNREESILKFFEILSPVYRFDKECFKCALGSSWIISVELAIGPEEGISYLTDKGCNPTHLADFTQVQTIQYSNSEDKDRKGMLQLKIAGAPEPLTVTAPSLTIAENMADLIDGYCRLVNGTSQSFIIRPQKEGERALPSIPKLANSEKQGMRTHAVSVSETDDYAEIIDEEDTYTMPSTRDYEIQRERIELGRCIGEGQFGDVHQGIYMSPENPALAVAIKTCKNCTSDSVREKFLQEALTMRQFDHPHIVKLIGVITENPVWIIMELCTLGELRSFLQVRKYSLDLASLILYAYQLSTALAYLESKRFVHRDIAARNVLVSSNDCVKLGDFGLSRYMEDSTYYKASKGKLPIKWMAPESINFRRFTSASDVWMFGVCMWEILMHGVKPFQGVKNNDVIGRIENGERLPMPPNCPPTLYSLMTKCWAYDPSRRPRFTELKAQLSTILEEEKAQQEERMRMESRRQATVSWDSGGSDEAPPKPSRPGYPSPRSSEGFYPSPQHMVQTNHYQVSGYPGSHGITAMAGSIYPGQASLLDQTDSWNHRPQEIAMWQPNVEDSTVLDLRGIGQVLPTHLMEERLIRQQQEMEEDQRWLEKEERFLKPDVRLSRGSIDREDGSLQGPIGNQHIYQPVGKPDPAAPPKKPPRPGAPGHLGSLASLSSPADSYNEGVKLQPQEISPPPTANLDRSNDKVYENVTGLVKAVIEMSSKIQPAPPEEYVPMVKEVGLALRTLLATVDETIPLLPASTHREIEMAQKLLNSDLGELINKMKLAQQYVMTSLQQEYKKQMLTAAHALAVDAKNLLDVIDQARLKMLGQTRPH

## O=C1CCC(N2Cc3cc(Cn4ncc5c(-c6ncc(C7CC7)cc6F)cc(N6CC(F)C6)nc54)ccc3C2=O)C(=O)N1 (stereo not drawn) [Example 86, 3-(5-{[4-(5-cyclopropyl-3-fluoropyridin-2-yl)-6-(3-fluoroazetidin-1-yl)-1H-pyrazolo[3,4-b]pyridin-1-yl]methyl}-1-oxo-2,3-dihydro-1H-isoindol-2-yl)piperidine-2,6-dione]
  DC50: 12.5 nM
  FAK HiBiT Ymin: 35.59

## O=C1CCC(N2Cc3cc(Cn4ncc5c(-c6ncccc6Cl)cc(N6CCC6)nc54)ccc3C2=O)C(=O)N1 (stereo not drawn) [Example 88, 3-(5-{[6-(azetidin-1-yl)-4-(3-chloropyridin-2-yl)-1H-pyrazolo[3,4-b]pyridin-1-yl]methyl}-1-oxo-2,3-dihydro-1H-isoindol-2-yl)piperidine-2,6-dione]
  DC50: 13 nM
  FAK HiBiT Ymin: 10.98

## CC(C)Nc1cc(-c2ccc(C#N)cc2F)c2cnn(Cc3ccc4c(c3)CN(C3CCC(=O)NC3=O)C4=O)c2n1 (stereo not drawn) [Example 92, 4-(1-{[2-(2,6-dioxopiperidin-3-yl)-1-oxo-2,3-dihydro-1H-isoindol-5-yl]methyl}-6-[(propan-2-yl)amino]-1H-pyrazolo[3,4-b]pyridin-4-yl)-3-fluorobenzonitrile]
  DC50: 14.1 nM
  FAK HiBiT Ymin: 26.48

## N#Cc1ccc(-c2cc(N3CCC3)nc3c2cnn3Cc2ccc3c(n2)CN(C2CCC(=O)NC2=O)C3=O)c(Cl)c1 (stereo not drawn) [Example 101, 4-[6-(azetidin-1-yl)-1-{[6-(2,6-dioxopiperidin-3-yl)-5-oxo-5H,6H,7H-pyrrolo[3,4-b]pyridin-2-yl]methyl}-1H-pyrazolo[3,4-b]pyridin-4-yl]-3-chlorobenzonitrile]
  DC50: 29.2 nM
  FAK HiBiT Ymin: 11.17

## CC(C)Nc1cc(-c2ncc(C#N)cc2Cl)c2cnn(Cc3ccc4c(c3)CN(C3CCC(=O)NC3=O)C4=O)c2n1 (stereo not drawn) [Example 103, 5-chloro-6-(1-{[2-(2,6-dioxopiperidin-3-yl)-1-oxo-2,3-dihydro-1H-isoindol-5-yl]methyl}-6-[(propan-2-yl)amino]-1H-pyrazolo[3,4-b]pyridin-4-yl)pyridine-3-carbonitrile]
  DC50: 30.5 nM
  FAK HiBiT Ymin: 13.98

## Cc1cccnc1-c1cc(N2CC(F)C2)nc2c1cnn2Cc1ccc2c(c1)CN(C1CCC(=O)NC1=O)C2=O (stereo not drawn) [Example 112, 3-(5-{[6-(3-fluoroazetidin-1-yl)-4-(3-methylpyridin-2-yl)-1H-pyrazolo[3,4-b]pyridin-1-yl]methyl}-1-oxo-2,3-dihydro-1H-isoindol-2-yl)piperidine-2,6-dione]
  DC50: 46.7 nM
  FAK HiBiT Ymin: 18.51

## CC(C)Nc1cc(-c2ccncc2Cl)c2cnn(Cc3ccc4c(c3)CN(C3CCC(=O)NC3=O)C4=O)c2n1 (stereo not drawn) [Example 116, 3-(5-{[4-(3-chloropyridin-4-yl)-6-[(propan-2-yl)amino]-1H-pyrazolo[3,4-b]pyridin-1-yl]methyl}-1-oxo-2,3-dihydro-1H-isoindol-2-yl)piperidine-2,6-dione]
  DC50: 67.2 nM
  FAK HiBiT Ymin: 34.23

## CC(C)Nc1cc(-c2ncccc2Cl)c2cnn(Cc3ccc4c(c3)CN(C3CCC(=O)NC3=O)C4=O)c2n1 (stereo not drawn) [Example 117, 3-(5-{[4-(3-chloropyridin-2-yl)-6-[(propan-2-yl)amino]-1H-pyrazolo[3,4-b]pyridin-1-yl]methyl}-1-oxo-2,3-dihydro-1H-isoindol-2-yl)piperidine-2,6-dione]
  DC50: 73.7 nM
  FAK HiBiT Ymin: 25.54

## N#Cc1ccc(-c2cc(N3CCC3)nc3c2cnn3Cc2cnc3c(c2)CN(C2CCC(=O)NC2=O)C3=O)c(Cl)c1 (stereo not drawn) [Example 118, 4-[6-(azetidin-1-yl)-1-{[6-(2,6-dioxopiperidin-3-yl)-7-oxo-5H,6H,7H-pyrrolo[3,4-b]pyridin-3-yl]methyl}-1H-pyrazolo[3,4-b]pyridin-4-yl]-3-chlorobenzonitrile]
  DC50: 79.6 nM
  FAK HiBiT Ymin: 12.49
